According to PMC8968063, “Key features of inhibitor binding to the human mitochondrial pyruvate carrier hetero-dimer” (Molecular Metabolism, 2022):

Columns and labels:
[1] = biological target: T1, human MPC1L/MPC2 complex (Homo sapiens, UniProt O95563+P0DKB6); experiment: nano-DSF thermostability shift assay, purified MPC1L/MPC2; type: binding; settings: inhibitor 100 μM; for Tm, nano-DSF: unliganded 51.9 ± 0.1, mean ± s.d., 2 biological repeats
T1 construct: eight-histidine tag (C, cleaved yes); TEV protease cleavage site (part stays on MPC2 after digestion) (C, cleaved yes); made in house; host or cells: Saccharomyces cerevisiae SHY15 (mpc triple deletion strain), purified from mitochondria
T1 sequence (P0DKB6 2-136): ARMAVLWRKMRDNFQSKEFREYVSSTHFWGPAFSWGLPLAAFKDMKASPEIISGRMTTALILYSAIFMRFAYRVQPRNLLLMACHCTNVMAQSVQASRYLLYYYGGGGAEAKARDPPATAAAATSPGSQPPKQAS
T1 sequence (O95563 2-127): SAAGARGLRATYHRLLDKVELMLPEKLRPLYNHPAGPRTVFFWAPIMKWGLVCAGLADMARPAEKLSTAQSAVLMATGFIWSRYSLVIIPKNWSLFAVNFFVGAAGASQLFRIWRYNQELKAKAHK
Protocol: Ligand binding was also assessed using dye-free nano differential scanning fluorimetry (nano-DSF) to monitor fluorescence changes due to altered environments of tryptophan and tyrosine residues during unfolding. Protein samples in buffer containing 20 mM Tris–HCl pH 7.4, 150 mM NaCl, 0.1% (w/v) LMNG, 0.1 mg/mL TOCL, in the presence or absence of the indicated concentrations of small molecule inhibitors, were loaded into capillary tubes, and a temperature ramp of 5 °C/min was applied. The intrinsic fluorescence was measured using the NanoTemper Prometheus NT.48 (NanoTemper, München, Germany).

[2] = biological target: T2, MPC1/MPC2 hetero-dimer (Homo sapiens, UniProt O95563+Q9Y5U8); experiment: CPM thermostability shift assay, MPC1/MPC2; type: binding; settings: 100 μM inhibitor
T2 construct: eight-histidine tag (C, cleaved yes); Factor Xa cleavage site (C, cleaved yes); made in house; host or cells: Saccharomyces cerevisiae SHY15 (mpc triple deletion strain), purified from mitochondria
T2 sequence (Q9Y5U8 2-109 limits assumed): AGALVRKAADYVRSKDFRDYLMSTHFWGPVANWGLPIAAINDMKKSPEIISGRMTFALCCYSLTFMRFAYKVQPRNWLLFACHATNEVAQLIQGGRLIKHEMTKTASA
T2 sequence (O95563 2-127 limits assumed): T1 sequence (O95563 2-127)
Protocol: (§1) The assessment of ligand binding was performed via shifts in protein thermostability upon binding using thermal denaturation on a rotary quantitative PCR (qPCR) instrument (Qiagen Rotor-Gene Q 2plex HRM, Venlo, Netherlands), as previously described. In this method, cysteine residues, buried within the protein structure, become solvent-exposed during denaturation in a temperature ramp and then react with 7-diethylamino-3-(4-maleimidophenyl)-4-methylcoumarin (CPM) to form fluorescent-adducts. Briefly, a CPM working solution was prepared by diluting the CPM stock (5 mg/mL in dimethyl sulfoxide) 50-fold into assay buffer (20 mM Tris–HCl, pH 7.4, 150 mM NaCl, 0.1% (w/v) LMNG, 0.1 mg/mL TOCL) and incubated for 10 min at room temperature. In each analysis, performed in duplicates or triplicates, 3 μg of purified MPC was diluted into 45 μL of assay buffer containing the desired concentration of the inhibitor then incubated for 10 min on ice. Next, 5 μL of the CPM working solution were added. Samples were incubated on ice for an additional 10 min then subjected to a temperature ramp of 5.6 °C/min. The fluorescence increase was monitored with the HRM channel of the instrument (excitation at 440–480 nm, emission at 505–515 nm). Unfolding profiles were analysed with the Rotor-Gene Q software 2.3, and the peaks of their derivatives were used to determine the apparent melting temperature.

[3] = biological target: T1, human MPC1L/MPC2 complex; experiment: CPM thermostability shift assay, purified MPC1L/MPC2; type: binding; settings: for ΔTm at 100 µM / Tm, CPM assay / ∆Tm, CPM assay (thermal shift compared to no-ligand control): inhibitor 100 μM; for ΔTm at 100 µM: read-out: ∆Tm, CPM assay (thermal shift compared to no-ligand control); for Tm, CPM assay: unliganded 51.3 ± 0.2, mean ± s.d., 3 biological repeats
Protocol: as §1

[4] = biological target: T3, human MPC1L/MPC2 hetero-dimer (Homo sapiens, UniProt O95563+P0DKB6); experiment: Inhibition of [14C]-pyruvate homo-exchange in MPC1L/MPC2 proteoliposomes; type: biochemical; settings: for Inhibition of pyruvate transport, residual activity compared to control: compound 100 μM; for Inhibition of pyruvate transport, residual activity compared to control / IC50: MPC1L/MPC2 proteoliposomes; for IC50: 50 μM [14C]-pyruvate homo-exchange, mean ± s.d., read-out: IC50 of pyruvate transport inhibition; for Inhibitory potency for human MPC1L/MPC2 compared to yeast Mpc1/Mpc3: human vs yeast protein, yeast values ref 15
T3 construct: eight-histidine tag (C, cleaved yes); TEV protease cleavage site (part stays on MPC2 after digestion) (C, cleaved yes); made in house; host or cells: Saccharomyces cerevisiae SHY15 (mpc triple deletion strain), purified from mitochondria
T3 sequence (P0DKB6 2-136): T1 sequence (P0DKB6 2-136)
T3 sequence (O95563 2-127): T1 sequence (O95563 2-127)
Protocol: Egg L-α-phosphatidylcholine 99% (w/v) (Avanti Polar Lipids, AL, USA) and TOCL were mixed in a 20:1 (w/w) ratio, dried under a stream of nitrogen and washed once with methanol before being dried again. Lipids were hydrated in 20 mM Tris–HCl, pH 8.0, 50 mM NaCl to a concentration of 12 mg/mL. Unlabeled pyruvate was added as a freshly made concentrated stock at a final concentration of 5 mM for internalisation. Lipids were solubilised with 1.2% (v/v) pentaethylene glycol monodecyl ether (Sigma) and freshly purified protein was added at a lipid-to-protein ratio of 250:1 (w/w). Samples were incubated on ice for 5 min, then liposomes were formed by the step-wise removal of pentaethylene glycol monodecyl ether by five additions at 20 min intervals of 60 mg Bio-Beads SM-2 (Bio-Rad, Watford, UK) with gentle mixing at 4 °C. A final addition of 480 mg Bio-Beads was incubated with the samples overnight. Proteoliposomes were first separated from the Bio-Beads by passage through empty spin columns (Bio-Rad, Watford, UK) and subsequently pelleted at 120,000×g for 60 min. The proteoliposomes were resuspended with a thin needle in 150 μL of their supernatant after the rest of the supernatant was removed.
The time course of pyruvate homo-exchange was measured at room temperature. The transport was initiated by diluting proteoliposomes 200-fold into external buffer, 20 mM MES, pH 6.4, 50 mM NaCl, containing 50 μM [^14C]-pyruvate (500,000 dpm, Perkin Elmer, MA, USA). The reaction (0–30 s) was terminated by rapid dilution into 8 volumes of ice-cold internal buffer (20 mM Tris–HCl, pH 8.0, 50 mM NaCl), followed by rapid filtration through cellulose nitrate 0.45 μm filters (Millipore, Gillingham, UK) and washing with an additional 8 volumes of buffer. The filters were dissolved in Ultima Gold scintillation liquid (Perkin Elmer, MA, USA) and the radioactivity was counted with a Perkin Elmer Tri-Carb 2800 RT liquid scintillation counter. […] The data analysis was performed with non-linear regression fittings using GraphPad Prism 7.0d ([Inhibitor] vs response, variable slope). The specific uptake rates were calculated based on the amount of protein used in reconstitutions, as estimated from bicinchoninic acid assay. The biological repeats represent independent proteoliposome preparations using protein from independent purifications.

[5] = biological target: T4, MPC2 protomer (Homo sapiens, UniProt O95563); experiment: CPM thermostability shift assay, individually purified MPC2; type: binding; settings: 100 μM inhibitor
T4 construct: Factor Xa or TEV cleavage site followed by eight-histidine tag (C); made in house
T4 sequence (O95563 1-127): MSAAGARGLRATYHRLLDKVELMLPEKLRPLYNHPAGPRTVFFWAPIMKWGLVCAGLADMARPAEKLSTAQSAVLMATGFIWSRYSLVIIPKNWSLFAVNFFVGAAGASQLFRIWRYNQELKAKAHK
Protocol: as §1

[6] = biological target: mammalian MPCs; settings: cited from earlier work; for Ki: isolated mitochondria
[7] = biological target: T5, recombinant human MPC1L/MPC2 (Homo sapiens, UniProt O95563+P0DKB6); experiment: Electrospray mass spectrometry of MPC1L/MPC2 after reaction with inhibitors or sulfhydryl modifiers; settings: for Mass difference (observed vs calculated), MPC1L (2–136) / Mass difference (observed vs calculated), MPC1L (5–136) / Mass difference (observed vs calculated), MPC2 (2–137): MPC1L/MPC2 after reaction with compound; for Covalent modification of MPC protomers (molecular mass change): folded MPC1L/MPC2 incubated with compound, ESI-MS
T5 construct: MPC1L (2–136); MPC2 (2–137); eight-histidine tag (C, cleaved yes); TEV protease cleavage site (part stays on MPC2 after digestion) (C, cleaved yes); made in house; host or cells: Saccharomyces cerevisiae SHY15 (mpc triple deletion strain), purified from mitochondria
T5 sequence (P0DKB6 2-136 limits assumed): T1 sequence (P0DKB6 2-136)
T5 sequence (O95563 2-127 limits assumed): T1 sequence (O95563 2-127)
Protocol: Different MPC inhibitors (Table1) or sulfhydryl reagents were first incubated with MPC1L/MPC2 in a folded state, then the protein molecular masses were measured by electrospray mass spectrometry. The MPC subunits (10 μg) were resolved by reverse-phase HPLC on a PLRP-S column (1.0 mm i.d. X 75 mm; VARIAN) using a gradient of 2-propanol in a solvent system compatible with the recovery of membrane proteins (Carroll et al., 2009). The eluate (50 μL/min) was introduced into a QTRAP4000 (SCIEX) mass spectrometer operating in positive ion single MS mode. The instrument was scanned from 700 m/z to 2300 m/z after calibration with ions from a mixture of 1.0 μM of myoglobin and 1.5 μM trypsinogen. Molecular masses were obtained by reconstruction of the spectra of multiply charged ions using PeakView (SCIEX).

Structure (SMILES)	∆Tm, nano-DSF [1]	Tm, nano-DSF [1]	Thermostability shift of MPC1/MPC2 [2]	ΔTm at 100 µM [3]	Tm, CPM assay [3]	Inhibition of pyruvate transport, residual activity compared to control [4]	Thermostability shift of MPC2 alone [5]	∆Tm, nano-DSF ([1]; listed as lonidamine)	Ki [6]	Thermal shift in the CPM assay ([3]; compound 1 mM)	∆Tm, CPM assay (thermal shift compared to no-ligand control) [3]	IC50 [4]	Inhibitory potency for human MPC1L/MPC2 compared to yeast Mpc1/Mpc3 [4]	Potency relative to α-cyano-cinnamate (times less potent) [6]	Mass difference (observed vs calculated), MPC1L (2–136) [7]	Mass difference (observed vs calculated), MPC1L (5–136) [7]	Mass difference (observed vs calculated), MPC2 (2–137) [7]	Covalent modification of MPC protomers (molecular mass change) [7]	Effect on pyruvate transport ([4]; 1 mM final concentration)
N#CC(=Cc1ccc(O)cc1)C(=O)O [CHC, α-cyano-4-hydroxy-cinnamate]	7.0 ± 0.5 °C	58.9 ± 0.4 °C	strong shifts	8.3 ± 0.6 °C	59.6 ± 0.4 °C	completely inhibited	neither CHC nor zaprinast showed any shift	–	–	–	–	–	–	–	–	–	–	–	–
O=C(O)c1nn(Cc2ccc(Cl)cc2Cl)c2ccccc12 [Lonidamine, lonidamine]	0.6 ± 0.3 °C	52.5 ± 0.2 °C	–	-0.2 ± 0.5 °C	51.1 ± 0.3 °C	–	–	No thermal shifts	2.5 µM	negative thermal shift	No thermal shifts	4.6 ± 1.3 µM	much higher potencies	–	–	–	–	–	–
O=C(O)C(F)=Cc1ccccc1 [α-fluorocinnamate]	–	–	–	–	–	–	–	–	–	–	–	–	–	1,000 times	–	–	–	–	–
CCCOc1ccccc1-c1nc2nn[nH]c2c(=O)[nH]1 [Zaprinast]	6.3 ± 0.4 °C	58.2 ± 0.3 °C	strong shifts	7.5 ± 0.6 °C	58.8 ± 0.4 °C	completely inhibited	neither CHC nor zaprinast showed any shift	–	–	–	–	0.321 ± 0.042 µM	much higher potencies	–	0.4 Da	0.3 Da	1.5 Da	no molecular mass differences	–
N#CC(=Cc1cn(-c2ccccc2)c2ccccc12)C(=O)O [UK5099, α-cyano-β-(1-phenylindol-3-yl)-acrylate]	9.2 ± 0.7 °C	61.1 ± 0.6 °C	–	11.2 ± 1.1 °C	62.5 ± 0.9 °C	completely inhibited	–	–	~0.05 µM	–	–	–	–	–	0.6 Da	0.6 Da	1.7 Da	no molecular mass differences	–
CCCC(CCC)C(=O)O [Valproic acid, valproic acid]	-0.1 ± 0.3 °C	51.8 ± 0.2 °C	–	0 °C	51.3 ± 0.3 °C	–	–	–	–	–	no effect at all	–	–	–	–	–	–	–	minimal
